Measured values as given in US20170196296A1, “Amphoteric Metal Compound-Treated Substrate And Methods For Reduction Of Body Odor Using Treated Substrates” (priority 2016, published 2017).

Assay: solubility of copper hydroxide in ammonia solutions
Assay type: physicochemical
From the text: If the substrate is desirably a keratin-based material, then the substrate is selected from materials such as wool or hair (such as alpaca hair), and the AMH compound is preferably copper hydroxide (Cu[OH]2), which can be dissolved in an ammonia solution, resulting in an aqua ammonia solution of Schweizer's reagent, Cu[NH3]4[H2O]2][OH]2. […] Standard aqua ammonia (25%) saturates at only about 3% copper hydroxide W/W, and the concentrated ammonia solution is hazardous to breathe. However, the ammonia in the aqua ammonia+copper hydroxide solution can be mostly substituted with harmless ingredients. For example, a wool substrate can be soaked in an aqueous solution which is composed of only 3% ammonia, 4% W/W of ammonium chloride and 10% W/W of sodium carbonate will also dissolve 3% copper hydroxide, and after drying, the ammonium chloride and sodium carbonate can be rinsed away. A wool substrate thus treated will retain as much copper hydroxide as a substrate treated in solution of 3% copper hydroxide (saturated solution) in aqua ammonia (25% ammonia). Upon being soaked in either formula of 3% copper hydroxide solution, the surface of the wool immediately absorbs the copper hydroxide. Excess solution is squeezed out of the substrate material, and the substrate is allowed to dry. […]

- amount dissolved in aqueous ammonia/ammonium chloride/sodium carbonate solution (3% ammonia, 4% W/W ammonium chloride, 10% W/W sodium carbonate): 3%
- saturation concentration in standard aqua ammonia (aqua ammonia (25%)): about 3 % W/W
Structure (SMILES): [OH][Cu][OH] [Cu(OH)2, copper(ii) hydroxide]
